Patent publication US20030165837A1, “Method for screening DNA binding” (The Scripps Research Institute, priority 2000, published 2003)

How the values were obtained:
GC-rich regions = conditions: fold weaker; cited from earlier work
[1] = tested on: library of 512 hairpin deoxyoligonucleotides containing all possible five bp sequences; test: Fluorescent intercalator displacement (ethidium bromide) assay, 96-well, 512-member hairpin library; assay type: binding; conditions: for 3 or 2 bp AT sites, statistical site frequency in the top 50 sequences: FIG. 24; for five bp AT sites found in the top 50 sequences: share of the 16 five bp AT sites; for four bp AT sites found in the top 50 sequences: share of the 32 four bp AT sites; for three bp AT sites found in the top 50 sequences: share of the 80 three bp AT sites
Protocol: Ethidium Bromide Assay. […] Prior to use, each deoxyoligonucleotide was diluted to […] in water and stored at 0° C. for no longer than two days. Each well of a Costar black 96-well plate was loaded with Tris buffer containing ethidium bromide (88 μL of a 0.68×10^−5 solution in buffer (0.1 M Tris, 0.1 M NaCl, pH 8), 0.60×10^−5 M ethidium bromide final concentration). To each well was added one hairpin deoxyoligonucleotide (10 μL, 1.2×10^−5 M in DNA bp final concentration) followed by agent (2 μL of a 0.1 mM solution in water, 2.0×10^−6 M final concentration). […] Fluorescence readings are reported as % fluorescence relative to the control wells. Fluorescence plate readers show a variability of ±10%, but surface effects (i.e bubbles, dust) may contribute to larger variations requiring a second set of measurements.
All other experiments described herein (i.e. compound concentration, overall assay concentration, ethidium bromide:DNA ratio, time variability, etc.) utilized this general procedure in a 96-well plate format.

[2] = tested on: hairpin deoxyoligonucleotides (AATTT, AAAAA, AATAA, ATTAA); test: Ethidium bromide displacement quantitative titration, Scatchard analysis; assay type: binding; conditions: for binding constant for the hairpin containing AAAAA: ethidium bromide displacement titration
Protocol: Determination of Binding Constants. Ethidium Bromide/Thiazole Orange Displacement. A 3 mL quartz cuvette was loaded with Tris buffer (0.1 M Tris, 0.1 M, NaCl, pH 8) and ethidium bromide orthiazole orange (0.44×10^−5 M final concentration). […] The hairpin deoxyoligonucleotide of interest was added (1.1 μM, 8.8 μM in bp final concentration), the fluorescence was measured again and normalized to 100% relative fluorescence. A solution of compound (2 μL, 0.1 mM in DMSO) was added and the fluorescence was measured following 5 min of incubation at 23° C. The addition of 2 μL aliquots was continued until the system reached saturation and the fluorescence remained constant with subsequent compound additions.
(§1) Scatchard Analysis of the Titration Curve. The AF was plotted versus molar equivalents of agent and the ΔFsat was determined mathematically by solving the simultaneous equations representing the pre and post saturation regions of the titration curve. Utilizing equations (1)-(3) (FIG. 11), a Scatchard plot was generated where ΔF/[Free Agent] was plotted versus ΔF. The slope of the region immediately preceding complete saturation of the system provided −K.

[3] = tested on: 136-membered hairpin library containing all possible four bp sites; test: Thiazole orange displacement 96-well assay, 136-membered hairpin library; assay type: binding; conditions: 136 hairpins
Protocol: A preliminary examination of thiazole orange was conducted to assess the optimal assay concentration range, and to establish its affinity and stoichiometry of binding with representative hairpins (FIG. 10). Thiazole was utilized in both the 96-well format assay and in quantitative titrations for determining binding constants (FIGS. 27 and 28). […] A representative example of the use of thiazole orange in the 96-well format assay is illustrated in FIG. 28 with the assay of netropsin against a 136-membered hairpin library containing all possible four bp sites. […] The mean rank of the ten available 4 bp AT sites was 7.3, whereas the mean positions for the 3 and 2 bp sites were 41.6 and 67.7, respectively. Moreover, the rank order binding across the full ensemble of 4 bp AT sites is consistent with that established in footprinting studies (Portugal, J.; Waring, M. J. Eur. J. Biochem. 1987, 167, 281; Portugal, J.; Waring, M. J. FEBS Lett. 1987, 225, 195; Abu-Daya, A.; et al. Nucleic Acids Res. 1995, 23, 3385; Abu-Daya, A.; Fox, K. R. Nucleic Acids Res. 1997, 25, 4962; Harshman, K. D.; Dervan, P. B. Nucleic Acids Res. 1985, 13, 4825; Van Dyke, M. W.; et al. Proc. Natl. Acad. Sci. USA 1982, 79, 5470; Ward, B.; et al. Biochemistry 1988, 27, 1198; Fish, E. L.; et al. Biochemistry 1988, 27, 6026; Kittler, L.; et al. J. Mol. Recognit. 1999, 12, 121).

polynucleotides = test: Binding constants of ethidium bromide and thiazole orange to polynucleotides (FIG. 10, first table)
Description: FIG. 10 is a table showing the binding constants of ethidium bromide and thiazole orange. […] The variation in the DNA used in the first table is much greater than that used in the second table which explains the greater variation in the ethidium bromide constants.

[4] = tested on: hairpin deoxyoligonucleotide; test: Direct fluorescence titration of DAPI, Hoechst 33258, ethidium bromide or thiazole orange; assay type: binding; conditions: FIG. 10, second table
Protocol: Direct Fluorescence Titration of DAPI, Hoechst 33258, Ethidium Bromide or Thiazole Orange. A 3 mL quartz cuvette was loaded with Tris buffer (0.1 M Tris, 0.1 M, NaCl, pH 8) and hairpin deoxyoligonucleotide (1.1 μM, 8.8 μM in bp final concentration). A solution of DAPI (excitation 372 nm; emission 454 nm; 2 μL, 0.1 mM in DMSO), Hoechst 33258 (excitation 358 nm; emission 454 nm; 2 μL, 0.1 mM in DMSO), ethidium bromide (excitation 545 nm; emission 595 nm; 2 μL, 0.5 mM in H2O) or thiazole orange (excitation 509 nm; emission 527 nm; 2 μL, 0.5 mM in DMSO) was added and the fluorescence was measured following 5 min of incubation at 23° C. The addition of 2 μL aliquots was continued until the system reached saturation and the fluorescence remained constant with subsequent additions.
as §1

3 or 2 bp AT sites, statistical site frequency in the top 50 sequences ([1]; 512 hairpins) | five bp AT sites found in the top 50 sequences ([1]; 512 hairpins) | four bp AT sites found in the top 50 sequences ([1]; 512 hairpins) | three bp AT sites found in the top 50 sequences ([1]; 512 hairpins) | binding constant for the hairpin containing AAAAA ([2]; hairpin containing 5′-AAAAA) | Compound | sites containing a GC bp central to a five bp AT-rich site in the top 50 sequences ([1]; 512 hairpins) | other results
14% | 100% | 72% | 14% | 5e+07 M⁻¹ | Cl.Cl.N=C(N)c1ccc(-c2cc3ccc(C(=N)N)cc3[nH]2)cc1 [DAPI, 4′,6-Diamidine-2-phenylindole.2HCl] | none | binding to GC-rich regions by intercalation relative to AT-rich minor groove binding (GC-rich regions): 100-1000 fold; % fluorescence decrease ([1]; non AT-rich hairpins (>150-512), 2 μM): < 20%
15% | 100% | 66% | 15% | 6.4e+06 M⁻¹ | CC(=O)NCC(=O)O.CC(=O)NCC(=O)O.N=C(N)c1ccc(N=NNc2ccc(C(=N)N)cc2)cc1 [berenil] |  | 
27% | 88% | 47% | 13% | 1.7e+07 M⁻¹ | Cn1cc(NC(=O)c2cc(NC(=O)c3cc(NC=O)cn3C)cn2C)cc1C(=O)NCCC(=N)N [distamycin A] |  | hairpin sites with a GC bp central to a five bp AT-rich site found in the top 50 sequences ([1]; share of the 16 such hairpin sites): 44%; two bp AT sites found in the top 50 sequences ([1]; share of the 176 two bp AT sites, 512 hairpins): 6%; top 50 sequences that contain a GC bp central to a five bp AT-rich site ([1]; share of the top 50 sequences): 14%

The next lines start with the compound.

Compound | 3 or 2 bp AT sites, statistical site frequency in the top 50 sequences ([1]; 512 hairpins) | five bp AT sites found in the top 50 sequences ([1]; 512 hairpins) | four bp AT sites found in the top 50 sequences ([1]; 512 hairpins) | three bp AT sites found in the top 50 sequences ([1]; 512 hairpins) | binding constant for the hairpin containing AAAAA ([2]; hairpin containing 5′-AAAAA) | sites containing a GC bp central to a five bp AT-rich site in the top 50 sequences ([1]; 512 hairpins) | other results
CN1CCN(c2ccc3[nH]c(-c4ccc5[nH]c(-c6ccc(O)cc6)nc5c4)nc3c2)CC1 [Hoechst 33258] | 19% | 100% | 59% |  | 7.2e+07 M⁻¹ | no site containing a GC bp central to a 5 bp AT-rich site is found in the top 50 sequences | GAAT among the top 50 sequences ([1]; 5 sequences): 10%; GATT among the top 50 sequences ([1]; 7 sequences): 14%; top 50 sequences that contain a three bp AT site flanked by a GC bp ([1]; 15 in the top 50): 30%; sequences 21-50 (next 30 after the top 20) that contain a three bp AT site flanked by a GC bp ([1]; 15 of the next 30 sequences): 50%; fluorescent decrease ([1]; hairpins >100-150): < 20%; binding constants by ethidium bromide displacement relative to direct titration ([2]; fold weaker than direct titration, four hairpins): ~2 fold
Cn1cc(NC(=O)c2cc(NC(=O)CN=C(N)N)cn2C)cc1C(=O)NCCC(=N)N [netropsin] | 9% | 100% | 84% | 9% | 3.47e+08 M⁻¹ | no AT-rich sequence interrupted by a central GC bp appears in the top 50 sequences | rank (sequence no.) of ATTTA ([1]; 1.0 μM netropsin): 3; rank (sequence no.) of ATTTA ([1]; 2.0 μM netropsin): 1; mean position of the 2 bp AT sites [3]: 67.7; mean position of the 3 bp AT sites [3]: 41.6; mean rank of the ten available 4 bp AT sites [3]: 7.3; ethidium bromide displaced at saturation binding ([2]; hairpin containing 5′-AAAAA): essentially all the ethidium bromide
CN1C(=Cc2cc[n+](C)c3ccccc23)Sc2ccccc21 [thiazole orange] |  |  |  |  |  |  | difference in binding constant between polynucleotides (polynucleotides): no difference; difference in binding constants between hairpins [4]: 1.3 fold
